# Experiments:
# [1] = Cytotoxicity against monkey GMK cells at 25 ug/mL after 120 hrs by MTT assay; assay type: functional, Chlorocebus aethiops
# [2] = Cytotoxicity against monkey GMK cells at 50 ug/mL after 96 hrs by MTT assay; assay type: functional, Chlorocebus aethiops
# HEK293 [3] = assay: Cytotoxicity against human HEK293 cells at 5 ug/mL after 72 hrs by MTT assay; assay type: functional
# [4] = Cytotoxicity against monkey GMK cells at 50 ug/mL after 72 hrs by MTT assay; assay type: functional, Chlorocebus aethiops
# HEK293 [5] = assay: Cytotoxicity against human HEK293 cells at 100 ug/mL after 120 hrs by MTT assay; assay type: functional
# HEK293 [6] = assay: Cytotoxicity against human HEK293 cells at 100 ug/mL after 96 hrs by MTT assay; assay type: functional
# [7] = Cytotoxicity against monkey GMK cells at 2.5 ug/mL after 72 hrs by MTT assay; assay type: functional, Chlorocebus aethiops
# HEK293 [8] = assay: Cytotoxicity against human HEK293 cells at 10 ug/mL after 72 hrs by MTT assay; assay type: functional
# [9] = Cytotoxicity against monkey GMK cells at 25 ug/mL after 72 hrs by MTT assay; assay type: functional, Chlorocebus aethiops
# HEK293 [10] = assay: Cytotoxicity against human HEK293 cells at 50 ug/mL after 48 hrs by MTT assay; assay type: functional
# [11] = Cytotoxicity against monkey GMK cells at 5 ug/mL after 24 hrs by MTT assay; assay type: functional, Chlorocebus aethiops
# [12] = Cytotoxicity against monkey GMK cells at 100 ug/mL after 48 hrs by MTT assay; assay type: functional, Chlorocebus aethiops
# [13] = Cytotoxicity against monkey GMK cells at 2.5 ug/mL after 120 hrs by MTT assay; assay type: functional, Chlorocebus aethiops
# [14] = Cytotoxicity against monkey GMK cells at 25 ug/mL after 24 hrs by MTT assay; assay type: functional, Chlorocebus aethiops
# [15] = Cytotoxicity against monkey GMK cells at 200 ug/mL after 96 hrs by MTT assay; assay type: functional, Chlorocebus aethiops
# [16] = Cytotoxicity against monkey GMK cells at 100 ug/mL after 72 hrs by MTT assay; assay type: functional, Chlorocebus aethiops
# [17] = Cytotoxicity against monkey GMK cells at 50 ug/mL after 48 hrs by MTT assay; assay type: functional, Chlorocebus aethiops
# HEK293 [18] = assay: Cytotoxicity against human HEK293 cells at 25 ug/mL after 48 hrs by MTT assay; assay type: functional
# [19] = Cytotoxicity against monkey GMK cells at 100 ug/mL after 96 hrs by MTT assay; assay type: functional, Chlorocebus aethiops
# HEK293 [20] = assay: Cytotoxicity against human HEK293 cells at 25 ug/mL after 96 hrs by MTT assay; assay type: functional
# HEK293 [21] = assay: Cytotoxicity against human HEK293 cells at 5 ug/mL after 96 hrs by MTT assay; assay type: functional
# HEK293 [22] = assay: Cytotoxicity against human HEK293 cells at 200 ug/mL after 120 hrs by MTT assay; assay type: functional
# [23] = Cytotoxicity against monkey GMK cells at 10 ug/mL after 48 hrs by MTT assay; assay type: functional, Chlorocebus aethiops
# [24] = Cytotoxicity against monkey GMK cells at 50 ug/mL after 24 hrs by MTT assay; assay type: functional, Chlorocebus aethiops
# HEK293 [25] = assay: Cytotoxicity against human HEK293 cells at 2.5 ug/mL after 72 hrs by MTT assay; assay type: functional
# HEK293 [26] = assay: Cytotoxicity against human HEK293 cells at 100 ug/mL after 24 hrs by MTT assay; assay type: functional
# HEK293 [27] = assay: Cytotoxicity against human HEK293 cells at 100 ug/mL after 72 hrs by MTT assay; assay type: functional
# [28] = Cytotoxicity against monkey GMK cells at 5 ug/mL after 72 hrs by MTT assay; assay type: functional, Chlorocebus aethiops
# HEK293 [29] = assay: Cytotoxicity against human HEK293 cells at 50 ug/mL after 96 hrs by MTT assay; assay type: functional
# HEK293 [30] = assay: Cytotoxicity against human HEK293 cells at 25 ug/mL after 72 hrs by MTT assay; assay type: functional
# HEK293 [31] = assay: Cytotoxicity against human HEK293 cells at 10 ug/mL after 120 hrs by MTT assay; assay type: functional
# HEK293 [32] = assay: Cytotoxicity against human HEK293 cells at 5 ug/mL after 24 hrs by MTT assay; assay type: functional
# HEK293 [33] = assay: Cytotoxicity against human HEK293 cells at 200 ug/mL after 24 hrs by MTT assay; assay type: functional
# [34] = Cytotoxicity against monkey GMK cells at 5 ug/mL after 96 hrs by MTT assay; assay type: functional, Chlorocebus aethiops
# [35] = Cytotoxicity against monkey GMK cells at 50 ug/mL after 120 hrs by MTT assay; assay type: functional, Chlorocebus aethiops
# HEK293 [36] = assay: Cytotoxicity against human HEK293 cells at 200 ug/mL after 72 hrs by MTT assay; assay type: functional
# HEK293 [37] = assay: Cytotoxicity against human HEK293 cells at 10 ug/mL after 48 hrs by MTT assay; assay type: functional
# [38] = Cytotoxicity against monkey GMK cells at 2.5 ug/mL after 48 hrs by MTT assay; assay type: functional, Chlorocebus aethiops
# [39] = Cytotoxicity against monkey GMK cells at 25 ug/mL after 48 hrs by MTT assay; assay type: functional, Chlorocebus aethiops
# HEK293 [40] = assay: Cytotoxicity against human HEK293 cells at 2.5 ug/mL after 120 hrs by MTT assay; assay type: functional
# Echovirus E9 [41] = assay: Antiviral activity against Human echovirus 9 in GMK cells assessed as virus titre at 50 ug/mL after 1 hr; assay type: functional
# [42] = Cytotoxicity against monkey GMK cells at 100 ug/mL after 24 hrs by MTT assay; assay type: functional, Chlorocebus aethiops
# [43] = Cytotoxicity against monkey GMK cells at 100 ug/mL after 120 hrs by MTT assay; assay type: functional, Chlorocebus aethiops
# [44] = Cytotoxicity against monkey GMK cells at 10 ug/mL after 120 hrs by MTT assay; assay type: functional, Chlorocebus aethiops
# [45] = Cytotoxicity against monkey GMK cells at 200 ug/mL after 24 hrs by MTT assay; assay type: functional, Chlorocebus aethiops
# HEK293 [46] = assay: Cytotoxicity against human HEK293 cells at 200 ug/mL after 48 hrs by MTT assay; assay type: functional
# [47] = Cytotoxicity against monkey GMK cells at 10 ug/mL after 96 hrs by MTT assay; assay type: functional, Chlorocebus aethiops
# [48] = Cytotoxicity against monkey GMK cells at 2.5 ug/mL after 24 hrs by MTT assay; assay type: functional, Chlorocebus aethiops
# Echovirus E9 [49] = assay: Antiviral activity against Human echovirus 9 in GMK cells assessed as virus titre at 200 ug/mL after 1 hr; assay type: functional
# [50] = Cytotoxicity against monkey GMK cells at 25 ug/mL after 96 hrs by MTT assay; assay type: functional, Chlorocebus aethiops
# HEK293 [51] = assay: Cytotoxicity against human HEK293 cells at 200 ug/mL after 96 hrs by MTT assay; assay type: functional
# HEK293 [52] = assay: Cytotoxicity against human HEK293 cells at 100 ug/mL after 48 hrs by MTT assay; assay type: functional
# HEK293 [53] = assay: Cytotoxicity against human HEK293 cells at 10 ug/mL after 96 hrs by MTT assay; assay type: functional
# HEK293 [54] = assay: Cytotoxicity against human HEK293 cells at 2.5 ug/mL after 24 hrs by MTT assay; assay type: functional
# HEK293 [55] = assay: Cytotoxicity against human HEK293 cells at 25 ug/mL after 120 hrs by MTT assay; assay type: functional
# Human adenovirus 5 = assay: Antiviral activity against Human adenovirus 5 in HEK293 cells assessed as virus titre at 200 ug/mL after 1 hr; assay type: functional
# [56] = Cytotoxicity against monkey GMK cells at 200 ug/mL after 72 hrs by MTT assay; assay type: functional, Chlorocebus aethiops
structure (smiles),measurement,setting,value
COC(=O)CC1NN=C2N(CCN2c2cccc(Cl)c2)C1=O (centres undefined),Activity,[1],95%
same,Activity,[2],90%
same,Activity,HEK293 [3],100%
same,Activity,[4],95%
same,Activity,HEK293 [5],50%
same,Activity,HEK293 [6],50%
same,Activity,[7],100%
same,Activity,HEK293 [8],100%
same,Activity,[9],95%
same,Activity,HEK293 [10],95%
same,Activity,[11],100%
same,Activity,[12],50%
same,Activity,[13],100%
same,Activity,[14],100%
same,Activity,[15],0%
same,Activity,[16],20%
same,Activity,[17],95%
same,Activity,HEK293 [18],100%
same,Activity,[19],0%
same,Activity,HEK293 [20],95%
same,Activity,HEK293 [21],100%
same,Activity,HEK293 [22],30%
same,Activity,[23],100%
same,Activity,[24],100%
same,Activity,HEK293 [25],100%
same,Activity,HEK293 [26],98%
same,Activity,HEK293 [27],55%
same,Activity,[28],100%
same,Activity,HEK293 [29],90%
same,Activity,HEK293 [30],98%
same,Activity,HEK293 [31],100%
same,Activity,HEK293 [32],100%
same,Activity,HEK293 [33],98%
same,Activity,[34],100%
same,Activity,[35],90%
same,Activity,HEK293 [36],35%
same,Activity,HEK293 [37],100%
same,Activity,[38],100%
same,Activity,[39],100%
same,Activity,HEK293 [40],100%
same,TCID50,Echovirus E9 [41],3.33 mL⁻¹
same,Activity,[42],80%
same,Activity,[43],0%
same,Activity,[44],100%
same,Activity,[45],80%
same,Activity,HEK293 [46],40%
same,Activity,[47],100%
same,Activity,[48],100%
same,TCID50,Echovirus E9 [49],3.33 mL⁻¹
same,Activity,[50],95%
same,Activity,HEK293 [51],35%
same,Activity,HEK293 [52],50%
same,Activity,HEK293 [53],100%
same,Activity,HEK293 [54],100%
same,Activity,HEK293 [55],95%
same,TCID50,Human adenovirus 5,3.23 mL⁻¹
same,Activity,[56],20%
CCOC(=O)CC1NN=C2N(CCN2c2ccc(Cl)cc2)C1=O (centres undefined),Activity,[1],100%
same,Activity,[2],100%
same,Activity,HEK293 [3],100%
same,Activity,[4],100%
same,Activity,HEK293 [5],50%
same,Activity,HEK293 [6],70%
same,Activity,[7],100%
same,Activity,HEK293 [8],100%
same,Activity,[9],100%
same,Activity,HEK293 [10],100%
same,Activity,[11],100%
same,Activity,[12],100%
same,Activity,[13],100%
same,Activity,[14],100%
same,Activity,[15],95%
same,Activity,[16],100%
same,Activity,[17],100%
same,Activity,HEK293 [18],100%
same,Activity,[19],100%
same,Activity,HEK293 [20],100%
same,Activity,HEK293 [21],100%
same,Activity,HEK293 [22],20%
same,Activity,[23],100%
same,Activity,[24],100%
same,Activity,HEK293 [25],100%
same,Activity,HEK293 [26],95%
same,Activity,HEK293 [27],70%
same,Activity,[28],100%
same,Activity,HEK293 [29],100%
same,Activity,HEK293 [30],100%
same,Activity,HEK293 [31],100%
same,Activity,HEK293 [32],100%
same,Activity,HEK293 [33],50%
same,Activity,[34],100%
same,Activity,[35],100%
same,Activity,HEK293 [36],25%
same,Activity,HEK293 [37],100%
same,Activity,[38],100%
same,Activity,[39],100%
same,Activity,HEK293 [40],100%
same,TCID50,Echovirus E9 [41],4.23 mL⁻¹
same,Activity,[42],100%
same,Activity,[43],100%
same,Activity,[44],100%
same,Activity,[45],100%
same,Activity,HEK293 [46],30%
same,Activity,[47],100%
same,Activity,[48],100%
same,TCID50,Echovirus E9 [49],3.5 mL⁻¹
same,Activity,[50],100%
same,Activity,HEK293 [51],25%
same,Activity,HEK293 [52],90%
same,Activity,HEK293 [53],100%
same,Activity,HEK293 [54],100%
same,Activity,HEK293 [55],100%
same,TCID50,Human adenovirus 5,3.5 mL⁻¹
same,Activity,[56],100%
